# From article PMC6443933, “Antagonizing Retinoic Acid-Related-Orphan Receptor Gamma Activity Blocks the T Helper 17/Interleukin-17 Pathway Leading to Attenuated Pro-inflammatory Human Keratinocyte and Skin Responses” (Frontiers in Immunology, 2019)
# Key:
# [1] = system: T1, RORγt binding to RORE DNA binding sites; assay: RORE oligonucleotide pull-down assay; type: cell-based, human; conditions: 10 μM, HUT78-RORγt nuclear extracts, anti-CD3/PMA 2 h, vs DMSO
# T1 construct: HUT78 T-cells stably expressing full-length eGFP-RORγt; eGFP; expressed in transfected cells
# Protocol: In order to detect RORγt binding to its cognate DNA binding sites, biotinylated oligonucleotide probes containing putative 4 × RORE or mutated-RORE DNA sequences were synthesized (Microsynth, Switzerland) and annealed in order to form a double stranded DNA probe. The probes contained the following sequences (where the bold nucleotides represent a putative RORγt binding site or the mutated form of the RORE):
# Nuclear extracts originating from HUT78 cells stably expressing eGFP-RORγt were prepared as previously described ([45]). Briefly, cells were incubated with Cpd A (10 μM final concentration) for 0.5 h followed by a 2 h-stimulation period using CD3 antibody (2.5 μg/ml, clone OKT-3, BioXcell) plus PMA (8 ng/ml, Sigma). Nuclear lysates were generated using a nuclear extraction kit (Pierce, Thermo scientific), followed by a pre-clearing step with streptavidin-sepharose beads (GE healthcare Amersham) for 1 h at 4°C. The supernatants were incubated with biotinylated double-stranded RORE or with mutated RORE probes (10 nM final concentration) for 1 h at 4°C, followed by addition of a 50% slurry of streptavidin-sepharose beads for 1 h. The bound complexes were washed five times with 1 ml buffer consisting of 50 mM Tris-HCl, 1 mM EDTA, 1% NP-40, 150 mM NaCl and protease inhibitors (Roche). […]
# HaCaT keratinocytes = assay: IL-17-driven HaCaT keratinocyte responses (Th17 supernatants or spiked cytokines), qRT-PCR; type: cell-based, human; conditions: supernatants of Th17 cells treated with 10 μM vs 0.13 nM, 24 h
# Protocol: The HaCaT keratinocyte cell line was purchased from AddexBio and was maintained in RPMI 1640 medium supplemented with Glutamax, Penicillin/Streptomycin (all from Gibco) and 10% FCS (PAA). Normal primary human epidermal keratinocytes (NHEKs) were purchased from Lonza and PromoCell, respectively. Cells were cultured in Keratinocyte basal growth medium (KBM; Lonza) containing KGM2 growth supplements including insulin, human epidermal growth factor, bovine pituitary extract, hydrocortisone, epinephrine, transferrin, and gentamicin/amphotericin B (Lonza). HaCaT cells were incubated in a 96-well-microtiter plate (2 × 10^4 cells/well) with Th17 cytokine-containing supernatants obtained from total CD4^+ T-cells that were polarized for 72 h in the presence of anti-CD3/CD28 antibodies and a Th17 polarization cocktail as described above. […] Cytokine concentrations in supernatants were determined from representative experiments and they contained approximately 150 pg/ml or 600 pg/ml of IL-17 in 10 μM or in 0.13 nM treated samples, respectively. The TNF-α concentration was similar in supernatants exposed to low or high Cpd A concentrations and was 4 ng/ml. To study the impact of the IL-17 cytokine, IL-17 in the supernatants and in the spike-in cocktails was neutralized by a 0.5 h pre-incubation with an IL-17-specific antibody [0.75 μg/ml; Secukinumab (Cosentyx®, Novartis)]. All cultures were incubated in triplicates and after a 24 h incubation period, HaCaT cells (6 × 10^4 cells/sample) and NHEKs (1 × 10^5 cells/sample) were harvested and further processed for qRT-PCR analysis.
# Total RNA from human Th17 cells (6 × 10^5 cells), RORγt-RORE HUT78 cells (4 × 10^5 cells) and HaCaT cells (6 × 10^4 cells) was extracted using RNeasy kit including a DNAse I digestion step according to the manufacturer‘s protocol (Qiagen). Frozen skin biopsies (8 mm punches) were resuspended in RLT buffer (Qiagen) containing 1% β-mercaptoethanol and homogenized using a Precellys-Cryolys device (Bertin Instruments) according to the manufacturer's instructions. cDNAs were prepared with the High Capacity cDNA Reverse Transcription Kit (Applied Biosystems). Quantitative RT-PCR analysis was performed using a TaqManViiA7 (Applied Biosystems). All runs were accompanied by the internal control gene human β-glucoronidase (Gus) (431088E). The samples were run in triplicate or in hexaplicate and normalized to Gus using the ΔΔCt method to provide arbitrary units representing relative expression levels. The following Taqman probes were used for RT-PCR (Thermo Scientific): RORC (Hs01076112_m1), IL17A (Hs00936345_m1), IL22 (Hs01574154_m1), IL26 (Hs00218189_m1), IL23R (Hs00332759_m1), CCR6 (Hs00218189_m1), NFKBIZ (Hs00355476_m), DEFB4A (Hs00823638_m1), IL36G (Hs00219742_m1), and CCL20 (Hs00355476_m1).
structure (smiles),measurement,setting,value
"Cc1ccc(C(=O)Nc2cn3ccnc3c(CN3CCN(c4noc(C(C)(C)C)n4)[C@@H](C)C3)c2C)cn1 [Cpd A, (S)-N-(8-((4-(5-(tert-butyl)-1,2,4-oxadiazol-3-yl)-3-methylpiperazin-1-yl)methyl)-7-methylimidazo[1,2-a]pyridin-6-yl)-6-methylnicotinamide]",RORγt association with the ROR elements,[1],still intact
same,"IL-17 signature genes (NFKBIZ, DEFB4A, CCL20, IL36G) in HaCaT",HaCaT keratinocytes,marked reduction
